The results in this text go back to patent publication US9809640B2, “ApoE peptide dimers and uses thereof” (priority 2010, dated 2017).

The subject of one data set is B-CLL cells. The experiment in a line: Cytotoxicity on patient-derived B-CLL cells (MTS assay). On the technique in general: Tetrazolium assays rely on reduction of a dye to a coloured formazan, in cell work by metabolically active cells.
Another data set deals with U87MG glioblastoma cells. In kind it is cell-based. As to conditions: U87, ~24 hours.
The test system of another data set is PDK1. The experiment in a line: PDK1 activation, Western blot. In kind it is cell-based. As to conditions: U87 and MB231. The source says: FIGS. 10A-10B. […] FIG. 10A: Western blot analysis of U87 glioblastoma cells exposed to the indicated concentrations of COG445 peptide in the presence of EGF. The blot is probed with antibodies for the activated EGF receptor (P-EGFR), total EGF receptor, activated PDK1 (P-PDK1), and total PDK1. FIG. 10B: Western blot and densitometry analysis of Akt activation induced by EGF in U87 cells in the presence of increasing concentrations of COG445.
Akt signaling is often dysregulated in cancers thereby promoting cellular survival and proliferation. […] Given the effect of ApoE peptides on other inflammatory pathologies, we investigated the effect of an ApoE peptide dimer on Akt signaling in breast and brain cancer cells. A disulfide dimer of COG112 (SEQ ID NO: 1) was prepared as described in Example 1 (COG445). Adherent breast cancer cells, MDA-MB-231 (MB231), or glioblastoma cells, U87-MG (U87), were serum starved overnight and then exposed to COG445 for 2 hours before stimulating with epidermal growth factor (EGF) for 5 minutes. […] EGFR activation results in the activation of the PI3K/Akt signaling pathway, which is mediated by PDK1 activation.
(In general: Immunoblotting shows a protein as a band on a membrane.)

A further data set concerns PP2A. As to the kind of experiment: Phosphatase activity of PP2A immunoprecipitated from MDA-MB-231 cells. It counts as cell-based. As to conditions: concentrations ≧100 nM, EGF-stimulated MB231. The source says:
(§1) FIG. 12A: Total PP2A activity immunoprecipitated from MDA-MB-231 cells treated with EGF and increasing concentrations of COG445. FIG. 12B: Western blot and densitometry analysis of total c-myc protein levels in U87 cells treated with the indicated concentrations of COG445 in the presence or absence of okadaic acid. FIG. 12C: Immunoprecipitation of the catalytic subunit of PP2A from MDA-MB-231 cells exposed to EGF and two different concentrations of COG445. The blot is probed for I2PP2A (SET) and PP2A catalytic subunit.
To further characterize the effect of COG445 on PP2A activity, MB231 cells were treated as above and the phosphatase activity of immunoprecipitated PP2A was measured. EGF stimulation caused a significant decrease in total PP2A activity compared to untreated serum starved cells (FIG. 12A). […] To further explore the extent of PP2A activation in response to COG445, total c-myc protein levels were determined by western blot analysis. C-myc is a substrate for PP2A and upon dephosphorylation is metabolized by ubiquitination and proteasomal degradation. In both U87 (FIG. 12B) and MB231 (data not shown) cell lines, c-myc levels decreased after a two-hour exposure to COG445 in a dose-dependent manner, reaching statistical significance at 1000 nM.

The target in data set [1] is recombinant human PP2A catalytic subunit (Homo sapiens, UniProt P67775). The experiment in a line: Recombinant human PP2A catalytic subunit activity. In kind it is biochemical. The note with it: up to 10 μM. Here is the method:
(§2) To examine the mechanism of COG445 on PP2A activity, recombinant human PP2A catalytic subunit was incubated with COG445 and activity was measured. […] To further explore the changes of PP2A protein complexes, co-immunoprecipitation experiments were performed on MB231 cells.

Data set [2] has as its target T1, I2PP2A (SET) / PP2A catalytic subunit (Homo sapiens, UniProt Q01105).
T1 construct: endogenous in cells; host or cells: MDA-MB-231
As to the kind of experiment: Co-immunoprecipitation of I2PP2A (SET) with PP2A catalytic subunit in MB231 cells. As to conditions: 0.1 or 1 μM pre-treatment. In kind it is cell-based.
Description: as §1, §2

Positions of bridges follow the written chain, without caps; N, C: chain ends. Chains are numbered I, II in the order given.

T1 sequence (Q01105 2-290 limits assumed): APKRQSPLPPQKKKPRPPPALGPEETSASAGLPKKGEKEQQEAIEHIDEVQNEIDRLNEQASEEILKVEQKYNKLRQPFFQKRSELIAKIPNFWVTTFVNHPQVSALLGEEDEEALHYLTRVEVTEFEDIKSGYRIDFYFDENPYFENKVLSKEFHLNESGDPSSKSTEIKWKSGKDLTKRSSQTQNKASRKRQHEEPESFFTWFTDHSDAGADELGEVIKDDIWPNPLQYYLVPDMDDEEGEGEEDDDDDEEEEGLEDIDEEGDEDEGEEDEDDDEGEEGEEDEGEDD
Sequence of recombinant human PP2A catalytic subunit (P67775 whole entry): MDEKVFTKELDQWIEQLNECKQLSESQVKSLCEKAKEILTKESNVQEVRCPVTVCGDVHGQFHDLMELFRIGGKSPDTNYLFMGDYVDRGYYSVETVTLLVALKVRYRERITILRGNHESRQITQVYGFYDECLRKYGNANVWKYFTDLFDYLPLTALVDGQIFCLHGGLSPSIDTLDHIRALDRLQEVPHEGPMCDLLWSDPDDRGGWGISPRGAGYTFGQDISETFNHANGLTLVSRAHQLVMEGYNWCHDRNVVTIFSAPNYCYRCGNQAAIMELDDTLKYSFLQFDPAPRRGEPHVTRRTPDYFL

Consider “I: Ac-RQIKIWFQNRRMKWKKCLRVRLASHLRKLRKRLL-NH2 / II: Ac-RQIKIWFQNRRMKWKKCLRVRLASHLRKLRKRLL-NH2 (disulfide I:17-II:17) [COG445, COG112-C-C-COG112]”, for which the “Fold Change” value with B-CLL cells (CLL EC50 relative to COG056 (rev133) = 1.0) came to 117.3. Besides, the EC50 in the data set with B-CLL cells (read-out: ED50 for cytotoxicity of CLL cells, purified disulfide dimer, dimer molecular weight) was determined as 0.11 µM. Further, the “proliferation by MTT reduction” value in the data set with U87MG glioblastoma cells is listed as “dose-dependent decrease”. Further, the “PDK1 activation (serine 241 phosphorylation)” value in the data set on PDK1 is on record as “did not alter”. Besides, in the data set on PP2A, the PP2A activity result is given as “significant (P<0.01) increase”. Also, the “rate of phosphatase activity” value in data set [1] is recorded as “did not have any effect”. Also, in data set [2], the “association of I2PP2A to the catalytic subunit of PP2A” value is on record as “strongly diminished”.
